We go through 35 compounds from patent US11136315B2, “CXCR2 antagonist” (MEDSHINE DISCOVERY INC., priority 2018, dated 2021).

One series has as its target CXCR2 (Homo sapiens (Human), UniProt P25025). The series is described as follows: PathHunter CXCR2 β-arrestin cell assay, antagonism of CXCL8 (EC80). It is filed as cell-based. The note with it: PathHunter CXCR2 β-arrestin cells, CXCL8 agonist at EC80. The procedure:
The IC50 values were determined to evaluate the antagonistic activity of the test compounds against CXCR2.
PathHunter® CXCR2 β-arrestin cells (DiscoverX) were grown under normal conditions and seeded on a white-walled 384-microwell plate at 20 μL/well. Before testing, the cells were incubated at 37° C. for an appropriate time. The test compounds were serially diluted in DMSO at a three-fold dilution factor to obtain 8 serially diluted test compounds. Shortly before the test, the above serially diluted test compounds were further diluted with test buffer to 5 times the test concentration. 5 μL of the further diluted test compounds was added to the cells and then the cells were incubated at 37° C. for 30 minutes. The vehicle concentration was 1%. 5 μL of 6×EC80 agonist (CXCL8) buffer was added to the cells and then the cells were incubated at 37° C. for 90 minutes. 15 μL (50% v/v) of PathHunter detection reagent mixture was added in one portion, followed by one-hour incubation to generate the test signal. The microplates were read on a PerkinElmer Envision™ instrument for chemiluminescence signal. The biological activity of the test compounds was analyzed by CBIS data analysis suite (ChemInnovation, CA) and shown as IC50 values.

The nature of series [1]: Pharmacokinetic evaluation in C57BL/6 mice. It is filed as in vivo. The conditions noted are these: male, mouse, plasma; for clearance / half-life / AUC: intravenous 1 mpk / gavage 5 mpk study; for half-life: read-out: Half-life T1/2 (converted); for AUC: route not stated, unit printed shifted under first column, read-out: Area under the drug concentration time curve (AUC); for bioavailability: po, 5 mg/kg, gavage 5 mpk vs intravenous 1 mpk, read-out: Bioavailability (F). The procedure:
The pharmacokinetic parameters of the compounds in C57BL/6 mice were investigated.
C57BL/6 mice (male, 18-30 g, 7-9 weeks old, Shanghai Lingchang Biotechnology Co., Ltd.)
Formulations containing an aqueous solution of 1% DMSO/10% hydroxypropyl-β-cyclodextrin as the vehicle were administered by intravenous injection (1 mpk), formulations containing an aqueous solution of 1% DMSO/1% hydroxypropyl methylcellulose/0.2% Tween 80 as the vehicle were administered by gavage (5 mpk). Before the animal experiment, all animals were fasted, and fed 4 hours after administration; all animals were free to drink water. The time points of blood collection: intravenous injection administration group: 0.083, 0.25, 0.5, 1, 2, 4, 6, 8 and 24 hours; gavage administration group: 0.25, 0.5, 1, 2, 4, 6, 8 and 24 hours.
(§1) Whole blood samples (0.03 mL) were collected through the saphenous vein (or other suitable blood collection sites) at the prescribed time points, and all blood samples were added to labeled plastic centrifuge tubes containing K2-EDTA anticoagulant. After the blood samples were collected, the plasma was isolated by centrifugation, immediately placed in dry ice and stored at low temperature. All samples were analyzed by LC-MS/MS with a minimum detection limit of 2 nM. The non-compartmental model of WinNonlin™ Version 6.3 (Pharsight, Mountain View, Calif.) pharmacokinetic software was used to process the mean plasma concentration, and the linear-log trapezoid method was used to calculate the pharmacokinetic parameters.

The nature of series [2]: Pharmacokinetic and tissue distribution in Lewis rats. It is filed as in vivo. The conditions noted are these: male, rat, lung / plasma, oral, 5 mg/kg, gavage 5 mpk, read-out: Ratio in lung blood. As to the method: The pharmacokinetic and tissue distribution of the compounds in Lewis rats was tested.
Lewis rats (male, 202-239 g, 7-9 weeks old, Beijing Viton Lihua)
Formulations containing an aqueous solution of 1% hydroxypropyl methylcellulose/0.2% Tween 80 as the vehicle were administered by gavage (5 mpk). Before the animal experiment, all animals were fasted overnight, and fed 4 hours after administration; all animals were free to drink water. The time points of blood collection: danirixin administration group: 0.25, 1, 8 hours; gavage administration group: 0.5, 1, 4 hours.
as §1, with “(0.2” for “(0.03”, “separated” for “isolated”, “log-linear” for “linear-log”

Chain of CXCR2 (P25025 whole entry): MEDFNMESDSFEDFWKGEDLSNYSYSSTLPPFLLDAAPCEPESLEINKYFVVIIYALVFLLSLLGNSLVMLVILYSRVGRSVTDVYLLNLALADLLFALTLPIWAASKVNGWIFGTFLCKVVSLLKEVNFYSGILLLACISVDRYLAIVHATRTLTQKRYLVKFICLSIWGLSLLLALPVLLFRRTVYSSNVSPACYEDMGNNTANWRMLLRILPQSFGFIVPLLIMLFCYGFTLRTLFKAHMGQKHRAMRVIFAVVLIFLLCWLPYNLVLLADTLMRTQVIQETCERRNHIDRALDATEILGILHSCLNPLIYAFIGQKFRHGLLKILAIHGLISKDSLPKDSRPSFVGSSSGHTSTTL

The term IC50 denotes the concentration that gives 50% inhibition. Read a low IC50 as greater potency. `Cc1cc2c(o1)C(NC(=O)Nc1ccc(Cl)c(S(=O)(=O)[C@H]3CCCNC3)c1O)CCC2` (single isomer, unassigned) [WX029A] yielded an IC50 on CXCR2 of 2 nM.

On to `CCS(=O)(=O)c1c(Cl)ccc(NC(=O)NC2CCCc3ccoc32)c1O` (single isomer, unassigned) [WX007A], for which, at CXCR2, the IC50 was 42 nM.

On CXCR2, `O=C(CS(=O)(=O)c1c(Cl)ccc(NC(=O)NC2CCCc3ccoc32)c1O)NCC(F)(F)F` (single isomer, unassigned) [WX018A] showed an IC50 of 133 nM.

In turn, `O=C(Nc1ccc(Cl)c(S(=O)(=O)C2CCCNC2)c1O)NC1CCCc2sccc21` (single isomer, unassigned) [WX024B] showed an IC50 at CXCR2 of 667 nM.

Compound `Cc1cc2c(o1)C(NC(=O)Nc1ccc(Cl)c(S(=O)(=O)C3CC3)c1O)CCC2` (stereo not shown) [WX033] showed an IC50 at CXCR2 of 6 nM.

Regarding `O=C(Nc1ccc(Cl)c(S(=O)(=O)C2CCCCC2)c1O)N[C@H]1CCCc2ccoc21` [WX011A], the IC50 on CXCR2 was found to be 70 nM. Compared with the last compound, the IC50 is about 12-fold higher.

Usually bioavailability stands for the share of a dose that reaches the circulation, judged against a reference dose that is usually intravenous. Turning to `CC(C)S(=O)(=O)c1c(Cl)ccc(NC(=O)N[C@H]2CCCc3ccoc32)c1O` [WX003A], at CXCR2, the IC50 amounted to 17 nM. In addition, in series [1], the clearance amounted to 11.2 mL/min/kg, the half-life is 2.22 h, the AUC worked out at 12.7 µM·h and the bioavailability was 70.3%.

Compound `O=C(Nc1ccc(Cl)c(S(=O)(=O)CCN2C(=O)c3ccccc3C2=O)c1O)NC1CCCc2ccoc21` (stereo not shown) [WX014] came in with an IC50 on CXCR2 of 232 nM.

With `O=C(Nc1ccc(Cl)c(S(=O)(=O)C2CC2)c1O)N[C@H]1CCCc2ccsc21` (single isomer, unassigned) [WX027A], the IC50 on CXCR2 worked out at 269 nM.

`CC(C)S(=O)(=O)c1c(Cl)ccc(NC(=O)NC2CCCc3occc32)c1O` (single isomer, unassigned) [WX002A] showed an IC50 at CXCR2 of 45 nM.

For the compound `O=C(Nc1ccc(Cl)c(S(=O)(=O)C2CCNCC2)c1O)N[C@H]1CCCc2ccoc21` (single isomer, unassigned) [WX023A], the IC50 on CXCR2 stood at 36 nM.

The compound `CC1(C)NCCCC1S(=O)(=O)c1c(Cl)ccc(NC(=O)NC2CCCc3ccoc32)c1O` (stereo not shown) [WX036] returned an IC50 at CXCR2 of 23 nM.

In turn, `COC(=O)NCCS(=O)(=O)c1c(Cl)ccc(NC(=O)NC2CCCc3ccoc32)c1O` (single isomer, unassigned) [WX017A] returned an IC50 on CXCR2 of 72 nM. Against the preceding compound, the IC50 is about 3.1-fold higher.

`CC(C)(C)S(=O)(=O)c1c(Cl)ccc(NC(=O)NC2CCCc3ccoc32)c1O` (single isomer, unassigned) [WX005A] registered an IC50 on CXCR2 of 14 nM.

Consider `Cc1cc2c(o1)C(NC(=O)Nc1ccc(Cl)c(S(=O)(=O)[C@H]3CCCNC3)c1O)CCC2` (single isomer, unassigned) [WX029B], for which the concentration for half-maximal inhibition (IC50) at CXCR2 is 245 nM.

The compound `CS(=O)(=O)c1c(Cl)ccc(NC(=O)N[C@H]2CCCc3ccoc32)c1O` [WX008A] showed a concentration for half-maximal inhibition (IC50) on CXCR2 of 122 nM.

On to `O=C(Nc1ccc(Cl)c(S(=O)(=O)C2CCCC2)c1O)N[C@H]1CCCc2ccoc21` [WX010A], for which the IC50 at CXCR2 stood at 61 nM.

`O=C(Nc1ccc(Cl)c(S(=O)(=O)C2CCCNC2)c1O)NC1CCCc2sccc21` (single isomer, unassigned) [WX024A] returned a concentration for half-maximal inhibition (IC50) on CXCR2 of 525 nM.

`NCCS(=O)(=O)c1c(Cl)ccc(NC(=O)NC2CCCc3ccoc32)c1O` (stereo not shown) [WX015]: the IC50 at CXCR2 was 186 nM.

Regarding `O=C(Nc1ccc(Cl)c(S(=O)(=O)C2CC2)c1O)NC1CCCc2ncsc21` (stereo not shown) [WX028], the IC50 on CXCR2 came to 472 nM.

`O=C(Nc1ccc(Cl)c(S(=O)(=O)CC(F)(F)F)c1O)N[C@H]1CCCc2ccoc21` [WX012A] came in with an IC50 on CXCR2 of 17 nM. Besides, in series [1], the clearance was found to be 15.8 mL/min/kg, the half-life was 0.94 h, the AUC was found to be 9.39 µM·h and the bioavailability was determined as 82.5%.

The compound `O=C(Nc1ccc(Cl)c(S(=O)(=O)[C@H]2CCCNC2)c1O)NC1CCCc2cc(C(F)(F)F)oc21` (single isomer, unassigned) [WX030B] displayed an IC50 at CXCR2 of 22 nM. For the same compound, the Kp in series [2] is 2.17.

On CXCR2, `O=C(Nc1ccc(Cl)c(S(=O)(=O)C2CC2)c1O)NC1CCCc2ccoc21` (single isomer, unassigned) [WX006A] displayed an IC50 of 22 nM. In series [1], the clearance came to 8.3 mL/min/kg, the half-life is 3.09 h, the AUC amounted to 20.1 µM·h and the bioavailability stood at 83.8%.

On to `O=C(Nc1ccc(Cl)c(S(=O)(=O)CCNC(=O)C2CC2)c1O)NC1CCCc2ccoc21` (single isomer, unassigned) [WX016A], for which the IC50 at CXCR2 was found to be 134 nM. This lies in the sub-micromolar range.

The compound `O=C(Nc1ccc(Cl)c(S(=O)(=O)C2CC3(CNC3)C2)c1O)NC1CCCc2ccoc21` (single isomer, unassigned) [WX021A] gave an IC50 on CXCR2 of 720 nM.

For the compound `O=C(Nc1ccc(Cl)c(S(=O)(=O)[C@H]2CCCNC2)c1O)NC1CCCc2occc21` (single isomer, unassigned) [WX001A], on CXCR2, the IC50 is 152 nM.

For the compound `CC(C)S(=O)(=O)c1c(Cl)ccc(NC(=O)NC2CCCc3cc(C(F)(F)F)oc32)c1O` (stereo not shown) [WX034], on CXCR2, the IC50 stood at 55 nM.

In the case of `O=C(Nc1ccc(Cl)c(S(=O)(=O)C2CC3(CCNCC3)C2)c1O)N[C@H]1CCCc2ccoc21` (single isomer, unassigned) [WX022A], the IC50 at CXCR2 is 366 nM.

Regarding `Cc1cc2c(o1)C(NC(=O)Nc1ccc(Cl)c(S(=O)(=O)[C@H]3CCCNC3)c1O)CCC2` (stereo partly shown) [WX029], the IC50 at CXCR2 came to 15 nM.

`O=C(Nc1ccc(Cl)c(S(=O)(=O)[C@H]2CCCNC2)c1O)NC1CCCc2ccoc21` (single isomer, unassigned) [WX013A]: at CXCR2, the IC50 came to 14 nM. In addition, in series [1], the clearance came to 30.8 mL/min/kg, the half-life was 2.21 h, the AUC is 4.44 µM·h and the bioavailability came out at 75.5%.

With `CC(C)(C)OC(=O)N1CCC[C@H](S(=O)(=O)c2c(Cl)ccc(NC(=O)NC3CCCc4ccoc43)c2O)C1` (single isomer, unassigned) [WX004A], at CXCR2, the IC50 was 43 nM.

Compound `O=C(Nc1ccc(Cl)c(S(=O)(=O)C2CC2)c1O)NC1CCCc2cc(C(F)(F)F)oc21` (stereo not shown) [WX032] gave an IC50 at CXCR2 of 144 nM.

For `O=C(Nc1ccc(Cl)c(S(=O)(=O)C2CC2)c1O)N[C@@H]1CCCc2sccc21` (single isomer, unassigned) [WX025B], the IC50 at CXCR2 came out at 139 nM.

Compound `O=C(Nc1ccc(Cl)c(S(=O)(=O)C2CCC2)c1O)NC1CCCc2ccoc21` (stereo not shown) [WX009] showed an IC50 at CXCR2 of 177 nM.

Compound `CC(C)(Cc1ccccc1)S(=O)(=O)c1c(Cl)ccc(NC(=O)N[C@H]2CCCc3ccoc32)c1O` (single isomer, unassigned) [WX020A] displayed an IC50 at CXCR2 of 177 nM.
